The values that follow are results of earlier work, collected in patent publication US20020045179A1, “Toxicity typing using mesenchymal stem cells” (priority 2000, published 2002).

Read-outs that look alike come from different tables or passages of the source.

The conditions of data set [1]: for liver toxicity (in words): predetermined toxicity stated in text of Example 2.
For data set [2] the following is noted: in vivo.
For data set [3] the following is noted: in vivo. This is another data set of the same source.
For data set [4] the following is noted: in vivo. This is another data set of the same source.
The mark [5] stands for this setting: Table 1, predetermined toxicity by tissue/organ.

Take `CN(CCOc1ccc(CC2SC(=O)NC2=O)cc1)c1ccccn1` (stereo not drawn) [rosiglitazone]: the “TOXICITIES LIVER” value in data set [1] (setting [5]) is “ntc”. In the case of `N=C(N)NCCCCCCC(=O)NC(O)C(=O)NCCCCNCCCN` (stereo not drawn) [deoxyspergualin], the “TOXICITIES CV” value in data set [2] is “+”.

Take `CCOC(=O)C(C)(C)Oc1ccc(Cl)cc1` [clofibrate]: the “TOXICITIES LIVER” value in data set [1] (setting [5]) is given as “ntc”. As to `CC(=O)Nc1ccc(O)cc1` [acetominophen], the “TOXICITIES LIVER” value in data set [1] (in vivo) was “+”. Regarding `CCC(=O)O[C@H]1[C@H](O[C@@H]2[C@@H](C)[C@H](O[C@H]3C[C@@](C)(OC)[C@@H](O)[C@H](C)O3)[C@@H](C)C(=O)O[C@H](CC)[C@@](C)(O)[C@H](O)[C@@H](C)C(=O)[C@H](C)C[C@@]2(C)O)O[C@H](C)C[C@@H]1N(C)C` [erythromycin estolate], the “liver toxicity (in words)” value in data set [1] is “known liver toxicity”. As for `Cc1c(C)c2c(c(C)c1O)CCC(C)(COc1ccc(CC3SC(=O)NC3=O)cc1)O2` (stereo not drawn) [troglitazone], the “liver toxicity (in words)” value in data set [1] is “rare but severe liver toxicity”. With `COc1nc(C(Cl)(Cl)Cl)c(Cl)c(OC)c1Cl` [penclomedine], the “TOXICITIES CNS” value in data set [3] is given as “+”. With `N.N.O=C([O-])C1(C(=O)[O-])CCC1.[Pt+2]` [carboplatin], the “TOXICITIES GI” value in data set [4] is recorded as “+”.

For the compound `c1ccc2c(c1)cc1ccc3cccc4ccc2c1c34` [benzo(a)pyrene], in data set [2], the “TOXICITIES CV” value is reported as “+”.
